We go through nine compounds from paper PMC6284575 (2018).

For experiment [1], the system named is Tte class-I preQ1 riboswitch aptamer, U22Ap variant (RNA, riboswitch, 2-aminopurine at 22 (replacing U22)) CUGGGUCGCAGUAACCCCAGUUAACAAAACAAG
Briefly: 2-aminopurine fluorescence titration. The following applies: 100 mM KCl, 2 mM MgCl2; 50 mM MOPS, pH 7.5, 293 K; 0.5 µM RNA; apparent.

Experiment [2] concerns Spn class-II preQ1 riboswitch aptamer, A11Ap variant (RNA, riboswitch, 2-aminopurine at 11 (replacing A11)) CUUGGUGCUUAGCUUCUUUCACCAAGCAUAUUACACGCGGAUAACCGCCAAAGGA
The experiment in a line: 2-aminopurine fluorescence titration. The following applies: 100 mM KCl, 2 mM MgCl2; 50 mM MOPS, pH 7.5, 293 K; 0.5 µM RNA; apparent.

Regarding `NCCCNCc1c[nH]c2nc(N)[nH]c(=O)c12`, the KD in experiment [1] was determined as 32 nM; in experiment [2], 97 nM.

Turning to `[N-]=[N+]=NCCOCCNCc1c[nH]c2nc(N)[nH]c(=O)c12`, the KD was 167 nM in experiment [1] and 203 nM in experiment [2].

On to `COCCOCCOCCNCc1c[nH]c2nc(N)[nH]c(=O)c12`, for which the results for the KD in experiment [1] and in experiment [2] were 922 nM and 4580 nM, respectively.

Consider `Nc1nc2[nH]cc(CNCCCCCNCc3c[nH]c4nc(N)[nH]c(=O)c34)c2c(=O)[nH]1`, for which the KD worked out at 590 nM in experiment [1] and 1030 nM in experiment [2].

Consider `NCCCc1c[nH]c2nc(N)[nH]c(=O)c12`, for which the KD turned out to be 71 nM in experiment [1] and 2830 nM in experiment [2].

As for `[N-]=[N+]=NCCCCNCc1c[nH]c2nc(N)[nH]c(=O)c12`, the KD in experiment [1] worked out at 88 nM; in experiment [2], 432 nM.

Turning to `NCCCCNCc1c[nH]c2nc(N)[nH]c(=O)c12`, the KD in experiment [1] is on record as 41 nM; in experiment [2], 148 nM.

For `[N-]=[N+]=NCCCNCc1c[nH]c2nc(N)[nH]c(=O)c12`, the KD came to 30 nM in experiment [1] and 254 nM in experiment [2].

Regarding `NCc1c[nH]c2nc(N)[nH]c(=O)c12`, the KD in experiment [1] turned out to be 51 nM; in experiment [2], 430 nM.
